Assay results reported in ChEMBL document CHEMBL1158881, “Puupehenone congeners from an indo-pacific hyrtios sponge” (J Nat Prod, 2003).
Activity calls are given as the source filed them.

Tests used:
Format in all cases: functional, cell-based
[1] = tested on: MC-38; experiment: Cytotoxicity against mouse Colon 38 cells by Valeriote soft agar disk diffusion assay
[2] = tested on: H116; experiment: Cytotoxicity against human H116 cells by Valeriote soft agar disk diffusion assay
[3] = tested on: L1210; experiment: Cytotoxicity against mouse L1210 cells by Valeriote soft agar disk diffusion assay

Measured: Activity

COc1cc2c(cc1O)O[C@@]1(C)CC[C@H]3C(C)(C)CCC[C@]3(C)[C@H]1[C@@H]2OC
inactive: all assays above

COC1=CC2=C[C@@H]3[C@@]4(C)CCCC(C)(C)[C@@H]4CC[C@]3(C)OC2=CC1=O
inactive: all assays above

COc1cc2c(cc1O)O[C@@]1(C)CC[C@H]3C(C)(C)CCC[C@]3(C)C1=C2
inactive: all assays above
